Reference: BindingDB's records for doi:10.1021/jm801063n (University of Auckland, 2009)

Test: Inhibition of recombinant perforin-mediated lysis of human Jurkat T cells by 51Cr release assay

SMILES | IC50
Cc1cc2c(c(=O)[nH]1)C(=O)N/C2=C\c1ccc(-c2ccccc2)s1 [(Z)-6-Methyl-1-((5-phenylthiophen-2-yl)methylene)-1H-pyrrolo[3,4-c]pyridine-3,4(2H,5H)-dione] | > 20 µM
Cc1cc2c(c(=S)[nH]1)C(=O)O/C2=C\c1ccc(-c2ccccc2)s1 [(Z)-6-Methyl-1-((5-phenylthiophen-2-yl)methylene)-4-thioxo-4,5-dihydrofuro[3,4-c]pyridin-3(1H)-one] | 3.4 µM
Cc1cc2c(c(=O)[nH]1)C(=O)O/C2=C\c1ccc(-c2ccccc2)s1 [(Z)-6-Methyl-1-((5-phenylthiophen-2-yl)methylene)furo[3,4-c]pyridine-3,4(1H,5H)-dione] | 5 µM
Cc1cc2c(c(=S)[nH]1)C(=O)O/C2=C\c1csc(-c2ccccc2)c1 [(Z)-6-Methyl-1-((5-phenylthiophen-3-yl)methylene)-4-thioxo-4,5-dihydrofuro[3,4-c]pyridin-3(1H)-one] | > 20 µM
Cc1cc2c(c(=S)[nH]1)C(=O)O/C2=C\c1cccs1 [(Z)-6-Methyl-1-(thiophen-2-ylmethylene)-4-thioxo-4,5-dihydrofuro[3,4-c]pyridin-3(1H)-one] | 8.6 µM
Cc1cc2c(c(=S)[nH]1)C(=O)O/C2=C\c1ccsc1 [(Z)-6-Methyl-1-(thiophen-3-ylmethylene)-4-thioxo-4,5-dihydrofuro[3,4-c]pyridin-3(1H)-one] | > 20 µM
Cc1cc2c(c(=S)[nH]1)C(=O)O/C2=C\c1ccc(OC(F)(F)F)cc1 [(Z)-6-Methyl-4-thioxo-1-(4-(trifluoromethoxy)benzylidene)-4,5-dihydrofuro[3,4-c]pyridin-3(1H)-one] | > 20 µM
Cc1cc2c(c(=S)[nH]1)C(=O)O/C2=C\c1ccc(C(F)(F)F)cc1 [(Z)-6-Methyl-4-thioxo-1-(4-(trifluoromethyl)benzylidene)-4,5-dihydrofuro[3,4-c]pyridin-3(1H)-one] | > 20 µM
CC(=O)Nc1ccc(/C=C2\OC(=O)c3c2cc(C)[nH]c3=S)cc1 [(Z)-N-(4-((6-Methyl-3-oxo-4-thioxo-4,5-dihydrofuro[3,4-c]pyridin-1(3H)-ylidene)methyl)phenyl)acetamide] | > 20 µM
